From US20130101666A1, “LIPOSOME INCLUDING ELASTIN-LIKE POLYPEPTIDE CONJUGATED TO MOIETY CONTAINING HYDROPHOBIC GROUP, CHEMOSENSITIZER AND ANTICANCER AGENT AND USE THEREOF” (SAMSUNG ELECTRONICS CO., LTD., priority 2011, published 2013)

How the values were obtained:
[1] = system: NCI/ADR-RES cells; assay: cells; conditions: Homo sapiens, 10 min, read-out: cell viability
Description: (§1) In addition, cytotoxicity of the liposome with doxorubicin and verapamil entrapped therein against NCI/ADR-RES cells was confirmed. […] 50% based on the weight of doxorubicin of verapamil, was contained in the liposome. […] In this experiment, NCI/ADR-RES cells were incubated in each of a MEM containing free doxorubicin and a MEM containing the liposome with doxorubicin and verapamil entrapped therein, 10 volume % FBS, and 1 wt % PS at 37° C. for 48 hours. In particular, NCI/ADR-RES cells (5.0×10^4 cells) were cultured in MEM containing 10% (v/v) FBS and 1% penicillin/streptomycin in a well of the 24-well plate for 48 hours. The cultured NCI/ADR-RES cells were treated with the liposomes containing doxorubicin and verapamil at a variety of concentrations, immediately placed in a thermoshaker, and then incubated at 37° C. for 10 minutes. […] Thereafter, the NCI/ADR-RES cells were cultured at 37° C. for 48 hours, and the viability of the NCI/ADR-RES cells was measured using CCK-8 assay kit (Dojindo) by WST (water soluble tetrazolium) assay.
(§2) NCI/ADR-RES cells (5.0×10^4 cells) were cultured in MEM containing 10% (v/v) FBS and 1% penicillin/streptomycin in a well of the 24-well plate for 48 hours. […] Thereafter, the NCI/ADR-RES cells were cultured at 37° C. for 46 hours, and the viability of the NCI/ADR-RES cells was measured using CCK-8 assay kit (Dojindo) by WST assay. […]

[2] = system: NCI/ADR-RES cells; conditions: 45° C. for 10 minutes; 10 ug doxorubicin/mL (liposome: +5 ug verapamil/mL); FIG. 7A/7B
Description: as §1, §2

[3] = Amounts of drugs entrapped in liposomes by loading method (HPLC); type: physicochemical
Description: Two types of drugs, i.e., doxorubicin and verapamil, were loaded in the liposome. The loading process was performed using an ammonium sulfate gradient method (J. Control. Release 2009, 139, 73-80) or a pH-gradient method (Biochimica et Biophysica Acta 1985, 816, 294-302). In the loading process by the ammonium sulfate gradient method, a drug was added to the liposome solution formed of liposomes with 250 mM or 150 mM of ammonium sulfate inside and 25 mM of Tris-HCl buffer outside. The loading process was performed at a temperature of 37° C. for 60 minutes. In the loading process by the pH-gradient method, a drug was added to the liposome solution formed of liposomes with 300 mM of citrate buffer (pH 4.0) inside and 20 mM of HEPES buffer (150 mM NaCl, pH 7.4) outside. The loading process was performed at a temperature of 37° C. for 60 minutes.
The prepared liposome solution was passed through PD-10 (GE Healthcare) desalting column by flowing physiological saline therethrough to remove unentrapped drug.
Doxorubicin and verapamil entrapped in the liposomes were analyzed by high performance liquid chromatography (HPLC).
The liposomes co-encapsulating certain amounts of doxorubicin and verapamil were diluted and dissolved in dimethylsulfoxide (DMSO) and then introduced into a HPLC column. The analysis by HPLC was performed by eluting the drugs using KH2PO4/MeCN as an eluent and measuring absorbance thereof at 280 nm.
In the loading process, initial concentrations of doxorubicin and verapamil were 500 μg and 250 μg, respectively, based on 1 mL of the liposome solution.

[4] = system: NCI/ADR-RES cells; assay: Viability of NCI/ADR-RES cells cultured in the presence of doxorubicin (WST assay); type: cell-based; conditions: Homo sapiens, 20 ug/mL doxorubicin, 37° C. for 2 hours, fresh media, 2 days, FIG. 1, read-out: NCI/ADR-RES cells survived (viability)
Description: Tumor cells having a resistance against doxorubicin, i.e., NCI/ADR-RES cells, were cultured in the presence of doxorubicin and the viability of the cells was evaluated. NCI/ADR-RES cells are tumor cells derived from OVCAR-8.
NCI/ADR-RES cells were incubated in minimum essential media (MEM) containing various concentrations of doxorubicin (0.1, 0.5, 1.0, 2.5, 5.0, 10 or 20 ug/mL), 10 volume % fetal bovine serum (FBS), and 1 wt % penicillin-streptomycin (PS) at 37° C. for 2 hours. After the MEM was replaced with fresh media, the cells were incubated at 37° C. for 2 days. The viability of the cells was evaluated by water soluble tetrazolium (WST) assay. FIG. 1 is a graph showing the viability of NCI/ADR-RES cells when being cultured in the presence of doxorubicin.

[5] = ammonium sulfate gradient method, 150 mM ammonium sulfate (inside), 25 mM Tris HCl buffer (outside), initial doxorubicin 500 μg, verapamil 250 μg per 1 mL

Structure (SMILES)	viability at 20 µg/mL [1]	cell viability [2]	amount of entrapped doxorubicin [3, 5]	amount of entrapped doxorubicin ([3]; ammonium sulfate gradient method, 250 mM ammonium sulfate (inside), 25 mM Tris HCl buffer (outside), initial doxorubicin 500 μg, verapamil 250 μg per 1 mL)	amount of entrapped doxorubicin ([3]; pH-gradient method, 300 mM citrate buffer (pH 4.0) (inside), 20 mM HEPES buffer (150 mM NaCl, pH 7.4) (outside))	viability at 20 µg/mL [4]	amount of entrapped verapamil [3, 5]
COc1cccc2c1C(=O)c1c(O)c3c(c(O)c1C2=O)C[C@@](O)(C(=O)CO)C[C@@H]3O[C@H]1C[C@H](N)[C@H](O)[C@H](C)O1 [Doxorubicin, doxorubicin]	50%	about 70%	36.5 µg/mL	404 µg/mL	42 µg/mL	> 70%	–
COc1ccc(CCN(C)CCCC(C#N)(c2ccc(OC)c(OC)c2)C(C)C)cc1OC (racemic) [Verapamil, (RS)-2-(3,4-dimethoxyphenyl)-5-{[2-(3,4-dimethoxyphenyl)ethyl]-(methyl)amino}-2-prop-2-ylpentanenitrile]	–	–	–	–	–	–	1.4 µg/mL
